One data set has as its system B. subtilis NCIB 3610. The data set can be described thus: Fluorescence microscopy of B. subtilis stained with HADA (peptidoglycan synthesis). The format is cell-based. The source says: Scale bars represent 2 μm. BF are the bright light images.
Fluorescence microscopy of B. subtilis stained with HADA, showing newly synthesised peptidoglycan from control cells.

Another data set is described as follows: in vitro. Conditions: human, 30% human serum in RPMI medium. How it is done: The experiment was performed in RPMI medium with 30% human serum at 37° C. Aliquots of the solution were analysed by HPLC-MS and the relative content was determined using an internal standard (phenol). The experiment was performed in three independent experiments.
In another data set the test system is P. aeruginosa. The data set is classed as cell-based.
The next data set relates to E. cloacae. The format is cell-based.
Another data set relates to S. pneumoniae. The data set is classed as cell-based.
The nature of data set [1]: Viability of HCT116 cells (cytotoxicity). The data set is classed as cell-based. Conditions: human; HCT116 cells in DMEM with 10% FBS; read-out: cytotoxic concentration CC50. As to the method: (§1) FIGS. 3A and 3B show the viability of HCT116 cells in DMEM with 10% FBS and 1% penicillin/streptomycin (FIG. 3A). The haemolysis experiments were performed with fresh blood from a healthy donor. Both experiments were performed in three independent experiments.
(§2) This is therefore >65-fold higher than the minimum inhibitory concentration against B. subtilis. […] Consequently, the P14 peptide as an antibiotic offers a distinct concentration window for therapeutic use.

The next data set deals with HCT116 cells. The data set can be described thus: Viability of HCT116 cells (cytotoxicity). The data set is classed as cell-based. The settings on record: CC50 (HCT116) over MIC (B. subtilis). How it is done: as §1, §2
For a further data set, the system named is human blood. The data set can be described thus: Haemolysis experiment with fresh blood from a healthy donor. The format is cell-based. How it is done:
as §1, §2
3) Haemolysis experiments using human blood from a healthy donor show a haemolytic concentration >50-fold above the minimum inhibitory concentration against B. subtilis.

Data set [2] deals with K. pneumoniae. The data set is classed as cell-based.
A further data set has as its system E. feacium. The data set is classed as cell-based.
The subject of data set [3] is A. baumannii. In words: Infection model 2: mouse skin infection with A. baumannii. Conditions: A. baumannii infected mice, superficial abrasion. The format is in vivo. As to the method:
(§3) The number of surviving bacterial colonies after treatment with peptide is shown.
Infection of the mice was induced by superficial abrasion and incubation with the bacterial culture.

Data set [4] deals with A. baumannii. The format is cell-based.
The test system of another data set is S. aureus. In words: MIC against ESKAPE pathogens in Mueller-Hinton medium. The format is cell-based. The settings on record: Gram-positive.
For data set [5], the system named is K. pneumoniae. In words: Infection model 1: treatment of K. pneumoniae-infected A549 lung cells. The data set is classed as cell-based. The settings on record: at 8 μM, surviving bacterial colonies. How it is done: as §3
The peptide P14 was tested as an antibiotic against the treatment of K. pneumoniae-infected A549 lung cells.

The subject of a further data set is Bacillus subtilis. In words: Minimum inhibitory concentration (MIC) in Mueller-Hinton medium. The data set is classed as cell-based. Conditions: relative to Com2. How it is done:
The experiments were performed in Mueller-Hinton medium in three independent experiments.
Analogously to P14, these amino acids have been incorporated into the parental sequence of Com2 and were partially tested on their antimicrobial activity against Gram-positive Bacillus Subtilis 3610 NCIB.

The next data set has as its system E. coli. The data set can be described thus: MIC against ESKAPE pathogens in Mueller-Hinton medium. The data set is classed as cell-based. The settings on record: Gram-negative.

Residues, ends and D or L forms follow the SMILES beside them. Some results are limits rather than exact numbers.

Consider `CN[C@H](CC(C)C)C(=O)N[C@H]1C(=O)N[C@@H](CC(N)=O)C(=O)N[C@H]2C(=O)N[C@H]3C(=O)N[C@H](C(=O)N[C@H](C(=O)O)c4cc(O)cc(O)c4-c4cc3ccc4O)[C@H](O)c3ccc(c(Cl)c3)Oc3cc2cc(c3O[C@@H]2O[C@H](CO)[C@@H](O)[C@H](O)[C@H]2O[C@H]2C[C@](C)(N)[C@H](O)[C@H](C)O2)Oc2ccc(cc2Cl)[C@H]1O` [vancomycin, reference compound], for which the “HADA staining of newly synthesised peptidoglycan” value with B. subtilis NCIB 3610 is given as “no HADA binding to the cell periphery is visible”.
`CC(=O)Nc1ccc(C(=O)N[C@@H](CCCNC(=N)N)C(=O)N[C@@H](CCCNC(=N)N)C(=O)N[C@@H](Cc2c[n+](Cc3ccc4ccccc4c3)cn2Cc2ccc3ccccc3c2)C(=O)N[C@@H](Cc2c[n+](Cc3ccc4ccccc4c3)cn2Cc2ccc3ccccc3c2)C(=O)N[C@@H](CCCNC(=N)N)C(=O)N[C@@H](Cc2ccccc2)C(N)=O)cc1` [Peptide P14, Aba-RR-Hdn-Hdn-RF-CONH2]: the half-life in the data set “in vitro” is above 840 min. Further, the MIC in the data set with P. aeruginosa stood at 12.5 µM; in the data set on E. cloacae it was 25 µM; against S. pneumoniae, 2.2 µM; against K. pneumoniae [2], 12.5 µM; against E. feacium it was 0.8 µM; in the data set on A. baumannii [4], 6.3 µM. Besides, the MIC stood at 1.6 µM in the data set with S. aureus and 25 µM with E. coli. Moreover, the CC50 in data set [1] amounted to 50.4 ± 4.48 µM. Further, the “cytotoxic concentration relative to MIC against B. subtilis” value in the data set on HCT116 cells is above 65 fold. For the same compound, the “haemolytic concentration relative to the MIC value” in the data set with human blood (HC50 over MIC (B. subtilis)) is recorded as above 50 fold. For the same compound, in the data set on human blood (fresh blood from a healthy donor), the “haemolytic concentration HC50” value worked out at 38.62 ± 2.58 µM. The “potency in mouse skin infection compared to polymyxin B” value in the data set on A. baumannii [3] is listed as “can be compared with that of the commonly used polymyxin B”. Moreover, the “activity in mouse skin infection compared to control peptide P3” value in the data set with A. baumannii [3] (surviving bacterial colonies) was “higher activity than the control peptide P3”. For the same compound, in the data set on B. subtilis NCIB 3610, the “HADA staining of newly synthesised peptidoglycan” value is “inhibits bacterial polyglycan synthesis”. Also, the “inhibition of bacterial growth in infected A549 lung cells” value in the data set on K. pneumoniae [5] was “complete inhibition of bacterial growth”. Moreover, the “minimum inhibitory concentration (MIC) compared to the parent peptide (Com2)” value in the data set on Bacillus subtilis is given as above 24 fold.
In turn, `N=C(N)NCCC[C@H](NC(=O)[C@H](Cc1c[nH]c2ccccc12)NC(=O)[C@H](Cc1c[nH]c2ccccc12)NC(=O)[C@H](CCCNC(=N)N)NC(=O)[C@@H](N)CCCNC(=N)N)C(=O)N[C@@H](Cc1ccccc1)C(N)=O` [Com2, H2N-RRWWRF-CONH2, reference compound] (H-RRWWRF-NH2) returned a half-life in the data set “in vitro” of around 24 min.

Values taken from patent publication US20250361272A1, “HISTIDINE-BASED UNNATURAL AMINO ACID, ITS PRODUCTION AND USE” (priority 2024, published 2025).
